Experimental data taken from patent publication US20240156825A1, “USE OF SELECTIVE VEGFR2 AND FGFR1 INHIBITORS” (Fountain Therapeutics Inc., priority 2022, published 2024).
Read-outs that look alike come from different tables or passages of the source.

How the values were obtained:
[1] = system: any gene target; conditions: cited from earlier work
[2] = biological target: T1, FGFR1 (Homo sapiens, UniProt P11362); conditions: cited from earlier work
[3] = biological target: T2, VEGFR2 (Homo sapiens, UniProt P35968); conditions: relative IC50: reported IC50 toward VEGFR2 divided by next lowest reported IC50 to any gene target
[4] = system: VEGFR2 and FGFR1; assay: Selection of compounds that selectively inhibit both VEGFR2 and FGFR1 (average relative IC50); format: biochemical;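 also: relative IC50 is the IC50 for VEGFR2 or FGFR1 divided by the next-lowest IC50 reported against any target gene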
[5] = system: Zmpste24−/− mice; assay: Mouse model of progeria: body fat (Echo MRI), lean muscle, body weight, intrascapular brown fat; format: in vivo; conditions: for Body fat (Echo MRI) vs vehicle / Intrascapular brown fat mass (percent of body weight) vs vehicle / Body weight vs vehicle / Lean muscle vs vehicle: oral gavage QD5 for 56 days; for Body fat (Echo MRI) vs vehicle / Intrascapular brown fat mass (percent of body weight) vs vehicle: Brivanib alaninate 50, SU5402 25, Cediranib maleate 5, Regorafenib 10, infigratinib 5 mg/kg; for Body weight vs vehicle / Lean muscle vs vehicle: SU5402 25, Cediranib maleate 5, Regorafenib 10, infigratinib 5 mg/kg
Method: Zmpste24 mice, a progeria model mouse line, were dosed with either 50 mg/kg Brivanib alaninate for 56 days, 5 days on, 2 days off (QD5), or vehicle alone. The dose was administered via oral gavage as a suspension of 18% (w/v) PEG400 2% (w/v) Tween-80 in water . The vehicle alone was 18% (w/v) PEG400 2% (w/v) Tween-80 in water.
The body fat of the mice was measured by an Echo MRI throughout the treatment.
Samples of intrascapular brown adipose tissue from 15 week old mice treated with Brivanib Alaninate or vehicle for 56 days underwent Hematoxylin and Eosin (H&E) staining.
Zmpste24−/− mice, a progeria model mouse line, were dosed with either 25 mg/kg SU5402 for 56 days, 5 days on, 2 days off (QD5) or vehicle alone. The dose was administered via oral gavage as a suspension of 5% (w/v) DMSO 9% (w/v) PEG400 1% (w/v) Tween-80 in saline. The vehicle alone was 5% (w/v) DMSO 9% (w/v) PEG400 1% (w/v) Tween-80 in saline.
The body fat of the mice was measured by an Echo […]. Lean muscle and body weight were also measured.
The dose was administered via oral gavage as a suspension of 18% (w/v) PEG400 2% (w/v) Tween-80 in water . The vehicle alone was 18% (w/v) PEG400 2% (w/v) Tween-80 in water.
The body fat of the mice was measured by an Echo MRI. […] There was also no alteration of intrascapular brown adipose tissue mass (FIG. 5D).
The dose was administered via oral gavage as a suspension of 18% (w/v) PEG400 2% (w/v) Tween-80 in water. The vehicle alone was 18% (w/v) PEG400 2% (w/v) Tween-80 in water.
The body fat of the mice was measured by an Echo MM. […] There was also no alteration of intrascapular brown adipose tissue mass (FIG. 6D).
The body fat of the mice was measure by an Echo MRI. […] There was also no alteration of intrascapular brown adipose tissue mass (FIG. 7D). […]

[6] = biological target: T1, FGFR1
[7] = biological target: T2, VEGFR2; conditions: cited from earlier work
[8] = system: C57BL6 mice fed a high fat, high cholesterol, high fructose diet; assay: Mouse model of diet induced fatty liver disease; format: in vivo; conditions: 28 days
[9] = system: Zmpste24−/− mice; assay: Mouse model of progeria: bone loss score of vertebrae and femur (H&E sections); format: in vivo; conditions: 50 mg/kg oral QD5 56 days, 15 weeks of age
Method: Zmpste24−/− mice were dosed with either 50 mg/kg Brivanib Alaninate for 56 days, 5 days on, 2 days off (QD5), or vehicle alone. The dose was administered via oral gavage as a suspension of 18% (w/v) PEG400 2% Tween-80 (w/v) in water . The vehicle alone was 18% (w/v) PEG400 2% (w/v) Tween-80 in water.
The mice were assessed for bone loss in the vertebrae and femur at 15 weeks of age. Bone loss was scored by a pathologist using H&E stained sections of vertebrae or femur samples by the following criteria:
The mice that are treated with a selective VEGFR2 inhibitor and a selective FGFR1 inhibitor are also assessed for bone loss in the vertebrae and femur. Bone loss is scored by a pathologist using the criteria in Example 2.

[10] = lowest reported IC50 to any gene target, read-out: Min IC50_μM
[11] = reported IC50 to FGFR1, read-out: FGFR1 IC50_μM
[12] = Table 2, lowest reported IC50 to any gene target, read-out: Min IC50_μM
[13] = Table 2, list of selective inhibitors of FGFR1, read-out: FGFR1 IC50_μM: reported IC50 to FGFR1
[14] = average of VEGFR2 and FGFR1 relative IC50
[15] = relative IC50: reported IC50 toward FGFR1 divided by next lowest reported IC50 to any gene target
[16] = lowest reported IC50 to any gene target, read-out: min IC50
[17] = 50 mg/kg i.p. once a day, relative to standard diet

T2 sequence (P35968 20-1356, species assumed): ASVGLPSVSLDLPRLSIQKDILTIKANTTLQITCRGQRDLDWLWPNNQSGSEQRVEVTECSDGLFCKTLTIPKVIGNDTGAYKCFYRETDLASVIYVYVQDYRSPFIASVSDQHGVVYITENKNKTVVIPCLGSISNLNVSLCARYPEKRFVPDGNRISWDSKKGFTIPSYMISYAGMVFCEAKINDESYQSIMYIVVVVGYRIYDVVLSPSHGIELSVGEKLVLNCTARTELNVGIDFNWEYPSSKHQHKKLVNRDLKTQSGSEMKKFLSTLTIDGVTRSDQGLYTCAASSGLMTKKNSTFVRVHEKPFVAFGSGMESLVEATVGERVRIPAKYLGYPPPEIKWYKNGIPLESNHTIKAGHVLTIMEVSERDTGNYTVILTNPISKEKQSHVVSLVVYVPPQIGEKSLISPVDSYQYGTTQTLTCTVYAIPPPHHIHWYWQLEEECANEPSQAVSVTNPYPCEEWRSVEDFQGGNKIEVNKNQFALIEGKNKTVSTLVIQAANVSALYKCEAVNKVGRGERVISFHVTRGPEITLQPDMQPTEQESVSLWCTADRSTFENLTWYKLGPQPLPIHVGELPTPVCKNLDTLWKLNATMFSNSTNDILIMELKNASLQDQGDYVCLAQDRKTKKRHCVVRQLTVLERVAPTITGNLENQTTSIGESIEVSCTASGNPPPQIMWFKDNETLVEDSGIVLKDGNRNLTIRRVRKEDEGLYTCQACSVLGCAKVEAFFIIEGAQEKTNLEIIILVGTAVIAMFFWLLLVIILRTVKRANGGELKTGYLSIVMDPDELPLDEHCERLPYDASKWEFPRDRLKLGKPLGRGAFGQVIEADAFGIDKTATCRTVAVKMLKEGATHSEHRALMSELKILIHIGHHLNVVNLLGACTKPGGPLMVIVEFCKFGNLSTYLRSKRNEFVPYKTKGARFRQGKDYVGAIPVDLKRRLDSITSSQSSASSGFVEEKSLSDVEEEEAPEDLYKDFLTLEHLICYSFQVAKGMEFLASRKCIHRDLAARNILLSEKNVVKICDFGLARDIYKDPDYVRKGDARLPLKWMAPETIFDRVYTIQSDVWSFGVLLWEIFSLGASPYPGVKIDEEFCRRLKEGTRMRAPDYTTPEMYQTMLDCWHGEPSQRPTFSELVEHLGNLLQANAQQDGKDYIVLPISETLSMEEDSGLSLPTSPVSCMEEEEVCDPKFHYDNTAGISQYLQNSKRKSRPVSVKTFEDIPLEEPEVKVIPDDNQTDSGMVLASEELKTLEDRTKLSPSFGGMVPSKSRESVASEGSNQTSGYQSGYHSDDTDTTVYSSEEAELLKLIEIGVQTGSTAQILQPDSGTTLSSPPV
T1 sequence (P11362 22-822, species assumed): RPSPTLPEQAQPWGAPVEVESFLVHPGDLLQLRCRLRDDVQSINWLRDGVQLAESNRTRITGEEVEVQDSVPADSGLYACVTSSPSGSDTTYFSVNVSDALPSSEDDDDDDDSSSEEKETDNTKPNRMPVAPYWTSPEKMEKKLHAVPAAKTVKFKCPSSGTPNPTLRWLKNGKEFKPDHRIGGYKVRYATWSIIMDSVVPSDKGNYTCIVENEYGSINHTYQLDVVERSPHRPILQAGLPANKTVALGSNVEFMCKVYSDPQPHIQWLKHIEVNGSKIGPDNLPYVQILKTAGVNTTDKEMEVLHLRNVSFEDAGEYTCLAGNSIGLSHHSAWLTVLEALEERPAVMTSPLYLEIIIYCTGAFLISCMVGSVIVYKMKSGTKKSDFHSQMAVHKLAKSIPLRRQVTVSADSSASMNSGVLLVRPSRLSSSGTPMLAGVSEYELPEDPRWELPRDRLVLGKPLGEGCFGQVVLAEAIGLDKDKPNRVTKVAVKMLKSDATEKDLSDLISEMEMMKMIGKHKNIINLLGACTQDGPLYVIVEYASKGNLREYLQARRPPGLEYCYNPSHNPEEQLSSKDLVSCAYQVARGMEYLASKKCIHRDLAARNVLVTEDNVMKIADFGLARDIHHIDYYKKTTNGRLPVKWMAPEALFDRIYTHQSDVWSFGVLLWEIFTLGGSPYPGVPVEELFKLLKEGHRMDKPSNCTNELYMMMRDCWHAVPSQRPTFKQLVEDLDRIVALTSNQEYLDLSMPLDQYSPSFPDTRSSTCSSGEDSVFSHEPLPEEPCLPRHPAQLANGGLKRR

C=CC(=O)Nc1ccc(CN(C(=O)Nc2c(Cl)c(OC)cc(OC)c2Cl)c2cc(Nc3ccc(N4CCN(C)CC4)cc3)ncn2)cc1 [compound 73707531]
IC50 [1, 10]: 1 nM
IC50 [2, 11]: 1 nM

Cc1cc(C)c(C)c(-c2cc3cnc(NCCCN4CCN(C)CC4)nc3nc2NC(=O)NC(C)(C)C)c1C [compound 10602350]
IC50 [1, 10]: 140 nM
IC50 [2, 11]: 140 nM

NC(=O)C1=C(c2ccc(Cl)cc2)c2ccccc2C1=O [compound 44330203]
IC50 [1, 10]: 5400 nM
IC50 [2, 11]: 5400 nM

Cc1oc2c(c1C(=O)N1CC[C@H](N)C1)C(=O)c1c(c(O)c3ccccc3c1O)C2=O [compound 137631210]
IC50 [1, 10]: 5000 nM
IC50 [2, 11]: 5000 nM

Cc1c[nH]c(/C=C2\C(=O)Nc3ccccc32)c1CCC(=O)O [compound 5289418, 3-[(3-(2-Carboxyethyl)-4-methylpyrrol-2-YL)methylene]-2-indolinone]
VEGFR2, rIC50 [3]: 0.7
IC50 ([1]; read-out: Min IC50_μM): 30 nM
IC50 ([1]; read-out: min IC50): 30 nM
avg rIC50 [4]: 1.1
Body fat (Echo MRI) vs vehicle [5]: increase in body mass starting at 9 weeks of age
Intrascapular brown fat mass (percent of body weight) vs vehicle [5]: made up for more of the body weight percent
Body weight vs vehicle [5]: increase in body weight starting at 12 weeks of age
Lean muscle vs vehicle [5]: increase in lean muscle starting at 15 weeks of age
FGFR1, rIC50 [6]: 1.5

C=CC(=O)N1CC[C@H](n2cc(-c3cc4cc(C)cc(OC)c4s3)c3c(N)ncnc32)C1 [compound 138617501]
IC50 [1, 12]: 0.8 nM
IC50 [2, 13]: 0.3 nM

CONC(=O)c1cc(Nc2ncnn3cc(-c4nnc(C)o4)c(C(C)C)c23)c(F)cc1F [compound 10478569, 2,4-Difluoro-5-[5-isopropyl-6-(5-methyl-[1,3,4]oxadiazol-2-yl)-pyrrolo[2,1-f][1,2,4]triazin-4-ylamino]-N-methoxy-benzamide, reference compound]
VEGFR2, rIC50 [3]: 1.2
IC50 [2, 11]: 6.5 nM
avg rIC50 [4, 14]: 1.1
FGFR1, rIC50 [6, 15]: 1.0

NS(=O)(=O)c1ccc2c(c1)/C(=C/c1[nH]c3c(c1CCC(=O)O)CCCC3)C(=O)N2 [compound 5329165, Indolin-2-one deriv. 9c, reference compound]
VEGFR2, rIC50 [3]: 3.0
IC50 [1, 12]: 600 nM
IC50 [1, 16]: 200 nM
IC50 [2, 13]: 200 nM
avg rIC50 [4, 14]: 1.7
FGFR1, rIC50 [6, 15]: 0.3

CC(C)(C)NC(=O)Nc1nc2nc(N)ncc2cc1-c1ccccc1 [compound 5329111]
IC50 [1, 10]: 3710 nM
IC50 [2, 11]: 3700 nM

CONC(=O)c1cc(Nc2ncnn3cc(-c4nnco4)c(C(C)C)c23)c(F)cc1F [compound 11464544, 2,4-Difluoro-5-(5-isopropyl-6-[1,3,4]oxadiazol-2-yl-pyrrolo[2,1-f][1,2,4]triazin-4-ylamino)-N-methoxy-benzamide, reference compound]
VEGFR2, rIC50 [3]: 1.4
IC50 [1, 10]: 54 nM
IC50 [1, 16]: 54 nM
IC50 [2, 11]: 54 nM
avg rIC50 [4, 14]: 1.2
FGFR1, rIC50 [6, 15]: 1.0

O=c1[nH]c(=O)n(-c2ccc(Oc3ccccc3)cc2)c(=O)n1-c1ccccc1 [compound 139434105]
IC50 [1, 12]: 1300 nM
IC50 [2, 13]: 890 nM

COc1cc(CCc2cc(Nc3ncnc4cc(N5CCN6CCCCC6C5)ccc34)n[nH]2)cc(OC)c1 (stereo not drawn) [compound 127047969]
IC50 [1, 10]: 0.2 nM
IC50 [2, 11]: 0.2 nM

Cediranib maleate
IC50 ([7]; read-out: IC50 VEGFR2): 1 nM
Body fat (Echo MRI) vs vehicle [5]: did not show an increase
Intrascapular brown fat mass (percent of body weight) vs vehicle [5]: no alteration
Body weight vs vehicle [5]: did not show an increase
Lean muscle vs vehicle [5]: did not show an increase

COC(=O)C1=C(c2ccccc2)c2cc(C)ccc2C1=O.COC(=O)C1=C(c2ccccc2)c2ccc(C)cc2C1=O [compound 44330102]
IC50 [1, 10]: 6400 nM
IC50 [2, 11]: 6400 nM

CCN1CCN(c2ccc(Nc3cc(N(C)C(=O)Nc4c(Cl)c(OC)cc(OC)c4Cl)ncn3)cc2)CC1 [Infigratinib]
Body fat (Echo MRI) vs vehicle [5]: did not show an increase
Intrascapular brown fat mass (percent of body weight) vs vehicle [5]: no alteration
Body weight vs vehicle [5]: did not show an increase
Lean muscle vs vehicle [5]: did not show an increase

CONC(=O)c1cc(Nc2ncnn3cc(-c4nnc(C(F)(F)F)o4)c(C(C)C)c23)c(F)cc1F [compound 11488852, 2,4-Difluoro-5-[5-isopropyl-6-(5-trifluoromethyl-[1,3,4]oxadiazol-2-yl)-pyrrolo[2,1-f][1,2,4]triazin-4-ylamino]-N-methoxy-benzamide, reference compound]
VEGFR2, rIC50 [3]: 1.1
IC50 [1, 10]: 33 nM
IC50 [1, 16]: 33 nM
IC50 ([2]; read-out: FGFR1 IC50_μM, reported IC50 to FGFR1): 33 nM
avg rIC50 [4, 14]: 1.0
FGFR1, rIC50 [6, 15]: 1.0

Cc1cc2c(F)c(Oc3ncnn4cc(OC[C@@H](C)OC(=O)[C@@H](C)N)c(C)c34)ccc2[nH]1 [compound 11234052, Brivanib alaninate (Brivanib)]
Liver lipid content (H&E) vs vehicle ([8]; 25 mg/kg i.p. once a day): decreased liver lipid content
Size of adipocytes in the epididymal fat pad vs vehicle ([8]; 25 mg/kg i.p. once a day): decreased the size of adipocytes
Thickness of the abdominal subcutaneous adipose ([8]; 25 mg/kg i.p. once a day): increased in the thickness
Increase in blood urea nitrogen vs fatty liver diet + vehicle [8, 17]: less of an increase
Increase in body weight vs fatty liver diet + vehicle [8, 17]: less of an increase
Increase in liver mass vs fatty liver diet + vehicle [8, 17]: less of an increase
Increase in serum cholesterol vs fatty liver diet + vehicle [8, 17]: less of an increase
Increase in serum triglycerides vs fatty liver diet + vehicle [8, 17]: less of an increase
IC50 ([7]; read-out: VEGFR2 IC50_μM, reported IC50 to VEGFR2): 25 nM
VEGFR2, rIC50 [3]: 0.9
IC50 [1, 16]: 25 nM
IC50 ([1]; next lowest IC50 value to any gene target, read-out: Min IC50_μM): 28 nM
avg rIC50 [4, 14]: 1.0
Lipid content in intrascapular brown adipose tissue (H&E) ([5]; 15 week old mice, 50 mg/kg for 56 days): increased lipid content
Body fat (Echo MRI) vs vehicle [5]: increase in body mass starting at 6 weeks of age
Intrascapular brown fat mass (percent of body weight) vs vehicle [5]: made up for more of the percent of the body weight
FGFR1, rIC50 [6, 15]: 1.1
Bone loss score, femur: most severe score in the group [9]: 0.5 (0.5 = less than 1%)
Bone loss score, vertebrae: most severe score in the group [9]: 4 (4 = 51-75%)
Bone loss scores vs vehicle [9]: lower bone loss scores
Share of mice with the most severe score, femur [9]: about 30%
Share of mice with the most severe score, vertebrae [9]: about 15%

CC(C)(C)NC(=O)Nc1nc2nc(N)ncc2cc1-c1c(Cl)cccc1Cl [compound 5328112]
IC50 [1, 10]: 130 nM
IC50 [2, 11]: 110 nM

COC(=O)C1=C(c2ccccc2)c2ccncc2C1=O [compound 44330158]
IC50 [1, 10]: 6800 nM
IC50 [2, 11]: 6800 nM
